From patent US9409952B2, “Peptide-compound cyclization method” (Chugai Seiyaku Kabushiki Kaisha, priority 2011, dated 2016)
Where two headings read alike, the source gives them in different places. Starred links: 1 amine or outer side, 2 acyl side, 3 side chain; linkers in the order of their positions; H or OH if unused. Positions of bridges follow the written chain, without caps; N, C: chain ends. Non-standard residues stand in square brackets, D forms with d. Residues, ends and D or L forms follow the SMILES beside them. *: point of attachment. Phe(3-(CH2)4CO) = O=C([C@H](Cc1cccc(CCCCC(=O)[*:3])c1)N[*:1])[*:2]; NMePhe(3-Cl) = CN[C@@H](Cc1cccc(Cl)c1)C(=O)O; NMeF = CN[C@@H](Cc1ccccc1)C(=O)O; NMeGABA = CN(CCCC(=O)[*:2])[*:1]; NMeI = CC[C@H](C)[C@H](NC)C(=O)O; NMeβAla = CN(CCC(=O)[*:2])[*:1]; NMeL = CN[C@@H](CC(C)C)C(=O)O; NMeV = CN[C@H](C(=O)O)C(C)C; NMeA = CN[C@@H](C)C(=O)O; Piperidide = C1CCN(*)CC1; dNMeA = CN[C@H](C)C(=O)O; β3hA = C[C@H](N)CC(=O)O; Abu = CC[C@H](N)C(=O)O; Sar = CNCC(=O)O; tBu = CC(C)(C)*

Columns and labels:
[1] = Metabolic stability in human hepatic microsome; format: in vitro ADME; details: microsomes
[2] = PAMPA (parallel artificial membrane permeability assay); format: in vitro ADME; details: PAMPA
Summary of the method: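 Artificial membrane was 10% (w/v) egg lecithin plus 0.5% (w/v) cholesterol in dodecane on a PVDF filter. A 10 mM DMSO stock was added at 0.5% (v/v) to donor buffer (50 mM MOPSO, pH 6.5, 5.0% glycocholic acid). After 18 h at 37 °C, LC/MS or LC/UV gave donor and acceptor levels for Pe.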

[3] = pH 7.4, human hepatic microsome, NADPH(+), read-out: CL NADPH(+)
[4] = membrane permeation rate (Pe), 50 mM MOPSO buffer pH 6.5 with 5.0% glycocholic acid, 37° C., 18 hours, read-out: iPAMPA Pe

microsomal CLint at 1 uM ([1]; human, pH 7.4, CL NADPH(+)) | Papp at 18 hours, 50 µM ([2]; pH 6.5) | SMILES | microsomal CLint at 1 uM [1, 3] | Papp at 18 hours, 50 µM [2, 4]
– | – | CC[C@H](C)[C@@H]1NC(=O)[C@H](Cc2ccccc2)N(C)C(=O)[C@@H]2CCCN2C(=O)[C@H]([C@@H](C)O)NC(=O)[C@H](CC(C)C)NC(=O)[C@H](C)N(C)C(=O)CCCN(C)C(=O)C[C@@H](C(=O)N2CCCCC2)NC(=O)[C@H](CC(C)C)NC(=O)[C@H](CC(C)C)N(C)C(=O)CNC(=O)[C@H](Cc2ccccc2)N(C)C1=O [DP-109] ([NMeGABA][NMeA]LTP[NMeF]I[NMeF]G[NMeL]LD-Piperidide; lactam N-12) | 36 µL/min/mg | 30 ×10⁻⁶ cm/s
– | – | CC(C)C[C@H]1C(=O)N(C)[C@@H](Cc2ccccc2)C(=O)NCC(=O)N[C@H](C(=O)N2CCCCC2)CC(=O)N(C)CCCC(=O)N[C@@H]([C@@H](C)O)C(=O)N(C)[C@@H](C)C(=O)N(C)[C@@H](Cc2ccccc2)C(=O)N[C@@H](COC(C)(C)C)C(=O)N1C [DP-129] ([NMeGABA]T[NMeA][NMeF]S(tBu)[NMeL][NMeF]GD-Piperidide; lactam N-9) | 120 µL/min/mg | 17 ×10⁻⁶ cm/s
– | – | CC[C@H](C)[C@@H]1NC(=O)CN(C)C(=O)[C@H](Cc2ccccc2)N(C)C(=O)[C@H]([C@@H](C)O)NC(=O)[C@H](CC(C)C)N(C)C(=O)[C@H](C)N(C)C(=O)CCCN(C)C(=O)C[C@@H](C(=O)N(C)[C@@H](Cc2ccccc2)C(=O)N[C@@H](C)C(=O)N2CCCCC2)NC(=O)[C@H](C(C)C)N(C)C(=O)[C@H](CC(C)C)N(C)C1=O [DP-374] ([NMeGABA][NMeA][NMeL]T[NMeF][Sar]I[NMeL][NMeV]D[NMeF]A-Piperidide; lactam N-10) | 53 µL/min/mg | 24 ×10⁻⁶ cm/s
– | – | CC[C@H](C)[C@@H]1NC(=O)[C@H](Cc2ccccc2)NC(=O)[C@@H]2CCCN2C(=O)[C@H](CC(C)C)N(C)C(=O)[C@H](Cc2ccccc2)NC(=O)[C@H](CC(C)C)NC(=O)[C@H]([C@@H](C)O)NC(=O)[C@H](C)N(C)C(=O)[C@H](C(C)C)NC(=O)CCCCc2cccc(c2)C[C@@H](C(=O)N2CCCCC2)NC(=O)[C@H](CC(C)C)NC(=O)CN(C)C1=O [DP-900] (V[NMeA]TLF[NMeL]PFI[Sar]L[Phe(3-(CH2)4CO)]-Piperidide; lactam N-12) | 244 µL/min/mg | 1.3 ×10⁻⁶ cm/s
– | – | CC(C)C[C@@H]1NC(=O)[C@H](Cc2ccccc2)N(C)C(=O)CN(C)C(=O)[C@H]([C@@H](C)O)NC(=O)[C@H](CC(C)C)N(C)C(=O)[C@H](C)NC(=O)C[C@@H](C(=O)N(C)[C@@H](Cc2ccccc2)C(=O)N(C)[C@@H](C)C(=O)N2CCC[C@H]2C(=O)N(C)[C@@H](Cc2ccccc2)C(=O)N[C@@H](C)C(=O)N2CCCCC2)NC1=O [DP-565] (A[NMeL]T[Sar][NMeF]LD[NMeF][NMeA]P[NMeF]A-Piperidide; lactam N-7) | 56 µL/min/mg | 18 ×10⁻⁶ cm/s
– | – | CC(C)C[C@H]1C(=O)N(C)[C@@H](C)C(=O)N(C)[C@@H](Cc2ccccc2)C(=O)N[C@@H](COC(C)(C)C)C(=O)N[C@H](C(=O)N2CCCCC2)CC(=O)N(C)CCCC(=O)N[C@@H]([C@@H](C)O)C(=O)N1C [DP-677] ([NMeGABA]T[NMeL][NMeA][NMeF]S(tBu)D-Piperidide; lactam N-7) | 45 µL/min/mg | 7.2 ×10⁻⁶ cm/s
– | – | CC(C)C[C@H]1C(=O)N[C@H](C(=O)N2CCCCC2)CC(=O)N[C@H](C)C(=O)N(C)[C@@H](Cc2ccccc2)C(=O)N(C)[C@@H](CC(C)C)C(=O)N[C@@H]([C@@H](C)O)C(=O)N(C)CC(=O)N1C [DP-537] ([dA][NMeF][NMeL]T[Sar][NMeL]D-Piperidide; lactam N-7) | 78 µL/min/mg | 10 ×10⁻⁶ cm/s
– | – | CC(C)C[C@@H]1NC(=O)[C@H](Cc2c[nH]cn2)NC(=O)[C@H](Cc2ccccc2)N(C)C(=O)[C@H](CC(C)C)NC(=O)[C@H](CC(C)C)N(C)C(=O)[C@H](Cc2ccccc2)NC(=O)[C@H](CC(C)C)N(C)C(=O)[C@H](CC(C)C)N(C)C(=O)[C@H](Cc2ccccc2)NC(=O)CN(C)C(=O)C[C@@H](C(=O)N(C)[C@@H](Cc2ccccc2)C(=O)N[C@@H](C)C(=O)N2CCCCC2)NC1=O [DP-592] ([Sar]F[NMeL][NMeL]F[NMeL]L[NMeF]HLD[NMeF]A-Piperidide; lactam N-11) | 5 µL/min/mg | 0.18 ×10⁻⁶ cm/s
– | – | CC(C)C[C@@H]1NC(=O)[C@H](CC(C)C)N(C)C(=O)[C@@H]2CCCN2C(=O)[C@H](CC(C)C)N(C)C(=O)[C@H](Cc2ccccc2)NC(=O)CNC(=O)[C@H](CC(C)C)N(C)C(=O)[C@H](Cc2ccccc2)NC(=O)CCN(C)C(=O)C[C@@H](C(=O)N(C)[C@@H](Cc2ccccc2)C(=O)N[C@@H](C)C(=O)N2CCCCC2)NC(=O)[C@H]([C@@H](C)O)NC1=O [DP-182] ([NMeβAla]F[NMeL]GF[NMeL]P[NMeL]LTD[NMeF]A-Piperidide; lactam N-11) | 9 µL/min/mg | 26 ×10⁻⁶ cm/s
59 µL/min/mg | 24 ×10⁻⁶ cm/s | CC[C@H](C)[C@H]1C(=O)N[C@@H](CC(C)C)C(=O)N(C)[C@@H](CC(C)C)C(=O)N[C@@H](COC(C)(C)C)C(=O)N(C)[C@@H](CC(C)C)C(=O)N[C@@H](C)CC(=O)N(C)CCC(=O)N[C@@H](Cc2ccccc2)C(=O)N(C)[C@@H](Cc2ccccc2)C(=O)N(C)[C@@H](CC(C)C)C(=O)N[C@@H]([C@@H](C)O)C(=O)N(C)[C@@H](C)C(=O)N1C [DP-758] (cyclo(F[NMeF][NMeL]T[NMeA][NMeI]L[NMeL]S(tBu)[NMeL][β3hA][NMeβAla])) | – | –
– | – | CC[C@@H]1NC(=O)C[C@H](C)NC(=O)[C@H](CC(C)C)N(C)C(=O)[C@H](CC(C)C)N(C)C(=O)[C@H](CC(C)C)N(C)C(=O)[C@@H](C)NC(=O)[C@H](CO)NC(=O)[C@H](CC(C)C)N(C)C(=O)[C@H](CC(C)C)NC(=O)[C@H](CC(C)C)N(C)C(=O)CN(C)C1=O [DP-651] (cyclo([Abu][Sar][NMeL]L[NMeL]S[dA][NMeL][NMeL][NMeL][β3hA])) | 68 µL/min/mg | 24 ×10⁻⁶ cm/s
15 µL/min/mg | 2.5 ×10⁻⁶ cm/s | CC(C)C[C@H]1C(=O)N(C)[C@@H](C)C(=O)N[C@@H](C)C(=O)N[C@@H](C)CC(=O)N(C)CCC(=O)N(C)[C@@H](Cc2ccccc2)C(=O)N(C)[C@@H](C)C(=O)N[C@@H]([C@@H](C)O)C(=O)N(C)[C@@H](C)C(=O)N[C@@H](Cc2ccccc2)C(=O)N(C)[C@@H](C(C)C)C(=O)N1C [DP-763] (cyclo(A[β3hA][NMeβAla][NMeF][NMeA]T[NMeA]F[NMeV][NMeL][NMeA])) | – | –
– | – | CC(C)C[C@@H]1NC(=O)[C@H](CC(C)C)N(C)C(=O)[C@H](C)NC(=O)[C@H](C(C)C)N(C)C(=O)[C@H](Cc2ccccc2)NC(=O)CN(C)C(=O)[C@H]([C@@H](C)O)NC(=O)[C@H](C)N(C)C(=O)[C@H](CC(C)C)N(C)C(=O)[C@@H](C)NC(=O)C[C@@H](C(=O)N(C)[C@@H](Cc2ccccc2)C(=O)N[C@@H](C)C(=O)N2CCCCC2)NC1=O [DP-179] ([dA][NMeL][NMeA]T[Sar]F[NMeV]A[NMeL]LD[NMeF]A-Piperidide; lactam N-11) | 13 µL/min/mg | 17 ×10⁻⁶ cm/s
– | – | CC(C)C[C@H]1C(=O)N[C@@H](COC(C)(C)C)C(=O)N[C@H](C(=O)N2CCCCC2)CC(=O)N(C)[C@H](C)C(=O)N(C)[C@@H](C)C(=O)N(C)[C@@H](Cc2ccccc2)C(=O)N(C)[C@@H](CC(C)C)C(=O)N[C@@H]([C@@H](C)O)C(=O)N(C)[C@@H](C)C(=O)N1C [DP-160] ([dNMeA][NMeA][NMeF][NMeL]T[NMeA][NMeL]S(tBu)D-Piperidide; lactam N-9) | 68 µL/min/mg | 37 ×10⁻⁶ cm/s
– | – | CC[C@H](C)[C@H](NC(=O)[C@H](C)N(C)C(=O)[C@@H]1CCCN1C(=O)[C@@H](NC(=O)[C@@H]1CC(=O)N(C)[C@H](C)C(=O)N(C)[C@@H](CC(C)C)C(=O)N(C)[C@@H](Cc2ccccc2)C(=O)N[C@@H](CC(C)C)C(=O)N(C)[C@@H](Cc2cccc(Cl)c2)C(=O)N[C@@H]([C@@H](C)O)C(=O)N(C)[C@@H](Cc2ccccc2)C(=O)N[C@@H](CC(C)C)C(=O)N1)[C@@H](C)CC)C(=O)N1CCCCC1 [DP-942] ([dNMeA][NMeL][NMeF]L[NMePhe(3-Cl)]T[NMeF]LDIP[NMeA]I-Piperidide; lactam N-9) | 23 µL/min/mg | 0.1 ×10⁻⁶ cm/s
– | – | CC(C)C[C@H]1C(=O)N[C@@H]([C@@H](C)O)C(=O)N(C)[C@@H](C)C(=O)N(C)[C@@H](CC(C)C)C(=O)N[C@@H](C(C)C)C(=O)N[C@H](C(=O)N(C)[C@@H](Cc2ccccc2)C(=O)N(C)[C@@H](Cc2ccccc2)C(=O)N[C@@H](C)C(=O)N2CCCCC2)CC(=O)N(C)[C@@H](C)C(=O)N(C)[C@@H](Cc2ccccc2)C(=O)N(C)CC(=O)N1C [DP-405] ([NMeA][NMeF][Sar][NMeL]T[NMeA][NMeL]VD[NMeF][NMeF]A-Piperidide; lactam N-9) | 83 µL/min/mg | 26 ×10⁻⁶ cm/s
– | – | CC(C)C[C@H]1C(=O)N(C)[C@@H](C)C(=O)N(C)[C@@H](CC(C)C)C(=O)N[C@H](C(=O)N(C)[C@@H](Cc2ccccc2)C(=O)N(C)[C@@H](Cc2ccccc2)C(=O)N[C@@H](C)C(=O)N2CCCCC2)CC(=O)N(C)CCCC(=O)N[C@@H]([C@@H](C)O)C(=O)N(C)[C@@H](Cc2ccccc2)C(=O)N(C)[C@@H](CC(C)C)C(=O)N[C@@H](C(C)C)C(=O)N1C [DP-403] ([NMeGABA]T[NMeF][NMeL]V[NMeL][NMeA][NMeL]D[NMeF][NMeF]A-Piperidide; lactam N-9) | 57 µL/min/mg | 18 ×10⁻⁶ cm/s

SMILES | microsomal CLint at 1 uM ([1]; human, pH 7.4, CL NADPH(+)) | Papp at 18 hours, 50 µM ([2]; pH 6.5) | microsomal CLint at 1 uM [1, 3] | Papp at 18 hours, 50 µM [2, 4]
CC[C@H](C)[C@H]1C(=O)N[C@@H]([C@@H](C)O)C(=O)N[C@@H](Cc2ccccc2)C(=O)N2CCC[C@H]2C(=O)NCC(=O)N(C)[C@@H](CC(C)C)C(=O)N[C@H](C(=O)N2CCCCC2)CC(=O)N[C@H](C)C(=O)N[C@@H](Cc2ccccc2)C(=O)N(C)[C@@H](CC(C)C)C(=O)N[C@@H](CC(C)C)C(=O)N1C [DP-227] ([dA]F[NMeL]L[NMeI]TFPG[NMeL]D-Piperidide; lactam N-11) | 141 µL/min/mg | 38 ×10⁻⁶ cm/s | – | –
